Reference: patent publication US9572831B2, “Composition and method for sulfated non-anticoagulant low molecular weight heparins in cancer and tumor metastasis” (priority 2013, dated 2017)

Tests used:
MPanc96-luc cells [1] = format: in vivo, athymic nude mice; conditions: S-NACH 20 mg/kg, tinzaparin 5 mg/kg
Experimental: MPanc96-luc cells were harvested as described above and were orthotopically implanted (2×10^5 cells in 50 μl PBS per mouse) in the pancreas of anesthetized athymic nude mice. Just before treatment initiation, animals (n=10 per group) were randomized by tumor mass detected by an in vivo imaging system (IVIS, described below). Heparin derivatives S-NACH at 20 mg/kg and tinzaparin at 5 mg/kg were administered subcutaneously daily. Gemcitabine at 100 mg/kg was injected intraperitoneally twice a week alone or in combination with either S-NACH or tinzaparin. All mice used for treatment response evaluations were euthanized after 28 days. See Table 2 for the protocol of the study. Imaging was performed once per week to monitor tumor growth. Mice bearing MPanc96-luc tumors were anaesthetized using isoflurane, injected subcutaneously with 50 μl D-luciferin (30 mg/ml), then imaged. Photographic and luminescence images were taken at constant exposure time. Xenogen IVIS® Living Image software version 3.2 was used to quantify non-saturated bioluminescence in regions of interest. Light emission between 5.5×10^6-7.0×10^10 photons was assumed to be indicative of viable luciferase-labeled tumor cells while emissions below this range were considered as background. Bioluminescence was quantified as photons/second for each region of interest. In vivo tumor kinetic growth and metastasis were monitored by signal intensity. Ex vivo imaging was performed to confirm the signal intensity in the tumors after the termination. All specimens were analyzed by histology for routine analysis. Specimens were fixed in 10% buffered formalin, processed routinely, and embedded in paraffin. Then, after fixation, the specimens were transferred into the embedding chambers to hold the specimens in position until the paraffin became solid to prevent further rotation. Four μm serial sections were cut, and then stained using haematoxylin and eosin. Sections were evaluated for various pathologic parameters using a light microscope (Leica, Buffalo Grove, Ill.).

MPanc96-luc cells [2] = assay: CAM cancer implant model, MPanc96; format: in vivo, chick embryo; conditions: 1.0 ug/CAM
Experimental: The CAM cancer implant model was used in conjunction with the present invention to study the effect of heparin derivatives (S-NACH versus tinzaparin) along with gemcitabine at 1.0 μg/CAM on tumor angiogenesis and tumor growth. MPanc96-luc cells in exponential growth phase were harvested as described above. One×10^6 cells in 30 μl of medium were mixed with an equal volume of Matrigel and implanted in the chick Chorioallantoic membrane (CAM) model of 7-day old chick eggs. The effect of these treatments was determined after 8 days of implantation. Results are presented as a mean tumor weight (g) per treatment group and tumor hemoglobin (mg/dl)±SEM, n=10 per group. For the Matrigel portions of the models, tumor angiogenesis is evaluated with tumor weight analysis and Drabkin's Assay for hemoglobin concentration (angiogenesis index). PBS was used as a negative control while breast cancer cells were used as a positive control and to initiate tumorigenesis. The tumor cells were MCF-7/DXR (human breast adenocarcinoma), and 1-2 million cells per CAM were used. […] By re-weighing the tubes with the tumor inside, the weight of the tumor itself could be recorded. […] Specimens were centrifuged, and the hemoglobin content was measured using Drabkin's reagent (Sigma, St Louis, Mo.), run in duplicate using the supernatant. […]

tinzaparin
tumor necrosis (histology) (MPanc96-luc cells [1]): modest increase in necrotic area
tumor growth or tumor angiogenesis (MPanc96-luc cells [2]): maximally inhibited
